The values below come from paper PMC3994546 (Chemico-biological interactions, 2014).

Assay [1] addresses T1, hSULT2A1 (Homo sapiens, UniProt Q06520).
T1 sequence (Q06520 1-285): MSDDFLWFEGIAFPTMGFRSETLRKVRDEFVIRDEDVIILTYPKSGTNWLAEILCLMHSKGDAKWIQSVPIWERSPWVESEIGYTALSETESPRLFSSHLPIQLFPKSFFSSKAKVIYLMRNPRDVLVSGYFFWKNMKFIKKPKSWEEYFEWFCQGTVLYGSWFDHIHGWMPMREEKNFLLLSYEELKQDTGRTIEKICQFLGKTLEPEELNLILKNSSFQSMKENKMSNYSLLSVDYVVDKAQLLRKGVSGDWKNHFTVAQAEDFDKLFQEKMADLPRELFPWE
The assay is described as follows: Kinetics of inhibition of hSULT2A1-catalyzed sulfation of [3H]DHEA by OHPCBs. Format: biochemical. Conditions: for type of inhibition with respect to DHEA (best-fit kinetic model): fixed PAPS, varied DHEA and inhibitor, model chosen by R2 and AICc; for β value of partial noncompetitive inhibition equation: signifies formation of DHEA-sulfate in the presence of the inhibitor.

The target in assay [2] is T1, hSULT2A1. The following applies: cited from earlier work.
For assay [3], the target named is T1, hSULT2A1. The assay is described as follows: Ligand binding to free hSULT2A1 by ANS fluorescence displacement. Conditions: for difference in the multiphasic binding pattern in the presence or absence of either DHEA or PAP: with or without DHEA or PAP.
The target in the next assay is T2, hSULT2A1 E-PAP complex (Homo sapiens, UniProt Q06520).
T2 sequence (Q06520 1-285): T1 sequence (Q06520 1-285)
Kind of assay: Ligand binding to the hSULT2A1-PAP complex by ANS fluorescence displacement.

The Ki is the dissociation constant of the complex between target and ligand, obtained from inhibition or displacement.

Like-named read-outs stand apart in the source and are kept apart here.

`Oc1ccc(-c2ccc(Cl)cc2)c(Cl)c1` [4-OHPCB 8, 4-hydroxy-2, 4’-dichlorobiphenyl]: affinity at hSULT2A1 [1] was put at a Ki of 5 ± 0.4 µM. Moreover, the “substrate for hSULT2A1-catalyzed sulfation” value (shortened to “substrate”) at hSULT2A1 [2] was “served as alternate substrates”.
`Oc1ccc(-c2ccc(Cl)c(Cl)c2)c(Cl)c1` [4’-OHPCB 33, 4’-hydroxy-2’, 3,4-trichlorobiphenyl] had a Ki on hSULT2A1 [1] of 3 ± 0.2 µM. Further, the “binding pattern to hSULT2A1 (ANS displacement)” value (shortened to “binding pattern to hSULT2A1”) at hSULT2A1 [3] (free enzyme) is on record as “multiphasic binding”. In addition, the “difference in the multiphasic binding pattern in the presence or absence of either DHEA or PAP” value on hSULT2A1 [3] was “did not show significant differences”. For the same compound, the “substrate” value on hSULT2A1 [2] is “served as alternate substrates”.
`Oc1c(Cl)cc(-c2ccccc2)cc1Cl` [4-OHPCB 14, 4-hydroxy-3,5-dichlorobiphenyl] yielded a Ki at hSULT2A1 [1] of 13.5 ± 1 µM. Further, the Kd amounted to 2.21 ± 0.5 µM at hSULT2A1 E-PAP complex and 2.55 ± 0.63 µM at hSULT2A1 [3]. The “binding pattern to hSULT2A1” value at hSULT2A1 [3] (free enzyme) is given as “classical single-site binding characteristics”. The “substrate” value on hSULT2A1 [2] is “served as alternate substrates”.
`Oc1ccc(-c2ccc(Cl)cc2)cc1O` [3’,4’-diOHPCB 3, 3’, 4’-dihydroxy-4-monochlorobiphenyl] returned a Ki on hSULT2A1 [1] of 32 ± 2.3 µM. In addition, the Kd was found to be 1.17 ± 1.11 µM on hSULT2A1 [3] and 41.9 ± 74.8 µM on hSULT2A1 [3] (read-out: Kd2, binding to hSULT2A1 in the absence of substrates or products, free enzyme, two-site, nonspecific binding curve).
Consider `Oc1ccc(-c2cc(Cl)ccc2Cl)cc1` [4’-OHPCB 9, 4’-hydroxy-2,5-dichlorobiphenyl], for which, at hSULT2A1 [1], the Ki was 0.7 ± 0.1 µM, the “type of inhibition with respect to DHEA (best-fit kinetic model)” value (shortened to “type of inhibition with respect to DHEA”) is reported as “partial noncompetitive inhibition” and the “β value of partial noncompetitive inhibition equation” value was found to be 0.11 ± 0.02. On hSULT2A1 [3] (free enzyme), the “binding pattern to hSULT2A1” value is on record as “multiphasic binding”. Also, the “difference in the multiphasic binding pattern in the presence or absence of either DHEA or PAP” value on hSULT2A1 [3] is “did not show significant differences”.
As to `Oc1ccc(-c2cccc(Cl)c2)cc1Cl` [4-OHPCB 11, 4-hydroxy-3, 3’-dichlorobiphenyl], the inhibitory constant (Ki) at hSULT2A1 [1] was determined as 12 ± 0.9 µM. The “substrate” value at hSULT2A1 [2] is “served as alternate substrates”.
`Oc1ccc(-c2cccc(Cl)c2Cl)cc1O` [3’,4’-diOHPCB 5, 3’, 4’- dihydroxy-2,3-dichlorobiphenyl]: at hSULT2A1 [1], the affinity, expressed as Ki, was 14 ± 0.8 µM.
For the compound `Oc1c(Cl)cc(-c2ccc(Cl)cc2Cl)cc1Cl` [4’-OHPCB 68, 4’-hydroxy-2, 3’, 4, 5’-tetrachlorobiphenyl], at hSULT2A1 [1], the Ki came to 0.6 ± 0.1 µM, the “type of inhibition with respect to DHEA” value is on record as “partial noncompetitive inhibition” and the “β value of partial noncompetitive inhibition equation” value is recorded as 0.23 ± 0.07. The compound also returned a Kd at hSULT2A1 [3] of 2.26 ± 0.33 µM. In addition, the “substrate” value at hSULT2A1 [2] was “served as alternate substrates”.
For the compound `Oc1ccc(Cl)cc1-c1ccc(Cl)c(Cl)c1` [6’-OHPCB 35, 6’-hydroxy-3, 3’-4 trichlorobiphenyl], the inhibitory constant (Ki) at hSULT2A1 [1] (read-out: Ki, inhibition of the sulfation of DHEA catalyzed by hSULT2A1, nonlinear regression fit to noncompetitive inhibition equation (4-OHPCB 36: competitive inhibition equation), 200 µM PAPS, pH 7.0, 37°C) came out at 9 ± 0.5 µM. Besides, the “binding pattern to hSULT2A1” value at hSULT2A1 [3] (free enzyme) is on record as “multiphasic behavior”.
The compound `Oc1ccc(-c2ccc(Cl)cc2)cc1` [4’-OHPCB 3, 4’-hydroxy-4-monochlorobiphenyl] yielded an inhibitory constant (Ki) on hSULT2A1 [1] of 17 ± 1.5 µM. Further, on hSULT2A1 [3], the Kd was 3.48 ± 1.03 µM.
`Oc1ccc(-c2ccccc2Cl)cc1Cl` [4’-OHPCB 6, 4’-hydroxy-2, 3’-dichlorobiphenyl]: at hSULT2A1 [1], the inhibitory constant (Ki) came out at 5.4 ± 0.2 µM and the “type of inhibition with respect to DHEA” value is “noncompetitive”.
For the compound `Oc1ccc(-c2ccc(Cl)cc2Cl)cc1Cl` [4’-OHPCB 25, 4’-hydroxy-2, 3’, 4-trichlorobiphenyl], on hSULT2A1 [1], affinity was put at a Ki of 3 ± 0.6 µM, the “type of inhibition with respect to DHEA” value is given as “partial noncompetitive inhibition” and the “β value of partial noncompetitive inhibition equation” value is reported as 0.19 ± 0.06. Further, the “substrate” value at hSULT2A1 [2] was “served as alternate substrates”.
In the case of `Oc1c(Cl)cc(-c2ccccc2Cl)cc1Cl` [4-OHPCB 34, 4-hydroxy-2’, 3,5-trichlorobiphenyl], at hSULT2A1 [1], the affinity corresponds to a Ki of 0.8 ± 0.1 µM. For the same compound, the Kd at hSULT2A1 E-PAP complex was 3.2 ± 0.31 µM; at hSULT2A1 [3] it was 2.07 ± 0.3 µM. The “binding pattern to hSULT2A1” value at hSULT2A1 [3] (free enzyme) is listed as “classical single-site binding characteristics”. The “substrate” value at hSULT2A1 [2] is recorded as “served as alternate substrates”.
`Oc1ccc(-c2ccc(Cl)c(Cl)c2)cc1` [4’-OHPCB 12, 4’-hydroxy-3,4-dichlorobiphenyl]: the inhibition constant Ki at hSULT2A1 [1] stood at 4 ± 0.3 µM.
In the case of `Oc1c(Cl)cc(-c2cccc(Cl)c2)cc1Cl` [4-OHPCB 36, 4-hydroxy-3, 3’, 5-trichlorobiphenyl], on hSULT2A1 [1], the inhibitory constant (Ki) stood at 3.4 ± 0.8 µM, the “α value of partial competitive inhibition equation” value is reported as 4.2 and the “type of inhibition with respect to DHEA” value was “partial competitive inhibition”. The compound further had a Kd on hSULT2A1 [3] of 2.46 ± 0.43 µM. In addition, at hSULT2A1 [2], the “substrate” value is reported as “served as alternate substrates”.
